Assay results: patent US20240270743A1, “TETRAHYDROPYRAZOLOPYRIDINE-ANALOG LIGANDS OF NLRX1 AND USES THEREOF” (LANDOS BIOPHARMA, INC., priority 2021, published 2024)

Tests used:
[1] = test system: OVA-induced model of asthma; test: OVA-induced model of asthma; type: in vivo, BALB/c mice; settings: 50 mg/kg daily by oral gavage, days 14-17, day 18
Protocol: OVA-induced model. BALB/c mice were immunized with 10 μg of ovalbumin (OVA) in aluminum hydroxide gel by intraperitoneal injection on day 0 and 7 of the experiment. Mice were then exposed to OVA (8% w/v) by aerosolization for 25 minutes daily between days 14 and 17. Treatment with LABP-72-38 (50 mg/kg) or vehicle control occurred daily between days 14 and 17 by oral gavage. An unchallenged negative control group was included for comparison. Dosage was calculated based off mean body weights. Immunological analysis. Lungs were collected on day 18 (OVA) or day 27 (HDM). Lung tissue was minced and digested in RPMI supplemented with FBS, HEPES, and calcium chloride containing 300 U/mL collagenase and 50 U/mL DNase for 45 minutes at 37° C. After filtration, red blood cells were lysed. Cells were labeled with mixtures of extracellular (CD45, CD3, CD4, CD8, MHCII, CD11b, CD11c, SiglecF, Ly6C, Ly6G) antibodies in a sequential live staining in 96-well plates in preparation for flow cytometry. Data was captured on a BD FACS Celesta and analyzed using FACSDiva.

[2] = test system: high fat diet induced obesity model; test: High fat diet-induced model of obesity; type: in vivo, C57BL6 mice; settings: 10 mg/kg daily oral gavage for 4 weeks
Protocol: Mouse model. C57BL6 mice were challenged with 16 weeks of high fat feeding by ad libitum exposure to rodent diet chow containing 60% kcal from fat. After 12 weeks of challenge, mice were treated daily with LABP-72-38 at 10 mg/kg for 4 weeks. Treatment was delivered by oral gavage. Mice were weighed weekly. Blood glucose levels were measured by glucometer on blood collected from the tail vein. After 16 weeks of diet, livers were excised and weighed. Weights were normalized to the total body weight.

[3] = test system: bleomycin mouse model of pulmonary fibrosis; test: Bleomycin-induced model of pulmonary fibrosis; type: in vivo, C57BL/6 mice; settings: 50 mg/kg once daily oral gavage from day 7, lungs 2 weeks after bleomycin
Protocol: Bleomycin model. C57BL/6 mice were anesthetized by isoflurane and intratracheally administered 1 mg/kg bleomycin at day 0. LABP-72-38 was prepared within a 0.5% methylcellulose (12-15 cP) solution. Dosage used was 50 mg/kg delivered once daily, by oral gavage beginning 7 days after bleomycin challenge. Lungs were collected 2 weeks after bleomycin challenge.
Flow Cytometry. Lungs were collected into RPMI/FBS buffer containing collagenase (300U/mL) and DNase (50U/mL) for digestion. Tissues were digested for 45 minutes under stirring at 37° C. Resultant cellular suspensions were filtered through 100 μm strainers, and centrifuged (300× g, 8 min). Red blood cells were lysed from the cellular suspensions. Cells were filtered and washed in fresh RPMI. Cells were labeled with mixtures of extracellular (CD45, CD3, CD4, CD8, CD19, NK1.1, F4/80, CD11b, Gr1) and intracellular (IL21) antibodies in a sequential live staining in 96-well plates. Data was acquired using a FACS Celesta flow cytometer with FACSDiva software.

[4] = test system: house dust mite model of asthma; test: House dust mite (HDM)-induced model of asthma; type: in vivo, BALB/c mice; settings: 20 mg/kg daily intranasal, 3 weeks of house dust mite challenge
Protocol: HDM-induced model. BALB/c mice were sensitized to house dust mite with 25 μg administered daily by intranasal instillation for five days. Challenge with house dust mite (25 μg/d) occurred for 5 consecutive days for the following three weeks. Treatment with LABP-72-38 (20 mg/kg) or vehicle control occurred daily during this three-week period. An unchallenged negative control group was included for comparison. Immunological analysis. Lungs were collected on day 18 (OVA) or day 27 (HDM). Lung tissue was minced and digested in RPMI supplemented with FBS, HEPES, and calcium chloride containing 300 U/mL collagenase and 50 U/mL DNase for 45 minutes at 37° C. After filtration, red blood cells were lysed. Cells were labeled with mixtures of extracellular (CD45, CD3, CD4, CD8, MHCII, CD11b, CD11c, SiglecF, Ly6C, Ly6G) antibodies in a sequential live staining in 96-well plates in preparation for flow cytometry. Data was captured on a BD FACS Celesta and analyzed using FACSDiva.

CD4+ T cells = test: Immunological screening in vitro in CD4+ T cells (flow cytometry); type: cell-based, C57BL/6 mice; settings: 100 nanomolar, 24 h, anti-CD3/CD28, PMA and ionomycin last 6 h; for production of TNFα / percentage of TNFα+ CD4+ T cells: relative to vehicle control (FIG. 3A); for production of IFNγ / percentage of IFNγ+ CD4+ T cells: relative to vehicle control (FIG. 3B)
Description: Cell culture. Spleens were excised from C57BL/6 mice. Spleens were crushed between the frosted ends of microscope slides and filtered to provide a cellular suspension. Red blood cells were lysed through hypotonic lysis. Remaining cells were washed and filtered. CD4+ T cells were enriched within the suspension using magnetic sorting based negative selection. Cells were collected and plated within 96 well plates coated with anti-CD3/CD28 and cultured in the presence of LABP-72-4, LABP-72-38, LABP-72-56, LABP-72-69 at 0 or 100 nanomolar for 24 h. During the last 6 h of culture, cells were stimulated with phorbol 12-myristate-13-acetate (PMA) and ionomycin.
Immunological analysis. Cells were collected from 96 well plates and stained with a cocktail of antibodies for immunophenotyping by flow cytometry. Culture supernatant was collected and assayed for cytokine concentrations by cytometric bead array. Data was captured on a BD FACS Celesta and analyzed using FACSDiva.

SMILES | percentage of eosinophils within the lung ([1]; relative to vehicle control (FIG. 4A)) | concentrations of anti-OVA IgE antibodies in the serum ([1]; relative to vehicle control (FIG. 4B)) | blood glucose level ([2]; 16 weeks high fat diet (FIG. 7A)) | body weight normalized liver weight ([2]; 16 weeks high fat diet, compared to vehicle (FIG. 7B)) | proportions of neutrophils in the lungs ([3]; relative to vehicle (FIG. 6A)) | proportions of IL21+ cells in the lungs ([3]; relative to vehicle (FIG. 6B)) | percentage of eosinophils within the lung ([4]; relative to vehicle control (FIG. 5A)) | percentage of neutrophils within the lung ([4]; relative to vehicle control (FIG. 5B)) | production of TNFα / percentage of TNFα+ CD4+ T cells (CD4+ T cells) | production of IFNγ / percentage of IFNγ+ CD4+ T cells (CD4+ T cells)
O=C(O)Cc1cncc(N2CCc3nn(-c4cc(F)cc(F)c4)cc3C2=O)c1 [LABP-72-38, 2-(5-(2-(3,5-difluorophenyl)-4-oxo-2,4,6,7-tetrahydro-5H-pyrazolo[4,3-c]pyridin-5-yl)pyridin-3-yl)acetic acid] | reduced | reducing | reduced | reduced | decreased | decreased | reduced | reduced | – | –
O=C(O)Cc1ccc(N2CCc3c(cnn3-c3cc(F)cc(F)c3)C2=O)cn1 [LABP-72-69, 2-(5-(1-(3,5-difluorophenyl)-4-oxo-1,4,6,7-tetrahydro-5H-pyrazolo[4,3-c]pyridin-5-yl)pyridin-2-yl)acetic acid] | – | – | – | – | – | – | – | – | significantly reducing | significantly reducing
O=C(O)Cc1cncc(N2CCc3nn(-c4cc(F)cc(F)c4)cc3C2=O)c1 [LABP-72-4] | – | – | – | – | – | – | – | – | significantly reducing | significantly reducing
